Structures are written as SMILES. Residues, ends and D or L forms follow the SMILES beside them.

The record followed here is ChEMBL document CHEMBL3120157, “Structures and solution conformational dynamics of stylissamides G and H from the Bahamian sponge Stylissa caribica” (J Nat Prod, 2014).

The experiment has as its system HCT-116. Briefly: Cytotoxicity against human HCT116 cells assessed as cell viability by MTS assay. It is filed as functional, cell-based.

Turning to `CC[C@H](C)[C@@H]1NC(=O)[C@H](CC(C)C)NC(=O)[C@@H]2CCCN2C(=O)[C@H](Cc2ccccc2)NC(=O)[C@@H]2CCCN2C(=O)[C@H](Cc2ccccc2)NC(=O)[C@@H]2CCCN2C1=O` (cyclo(FPFPLIP)), the EC50 is over 200 µM. With `CC[C@H](C)[C@@H]1NC(=O)[C@@H]2CCCN2C(=O)[C@H](Cc2c[nH]c3ccccc23)NC(=O)[C@@H]2CCCN2C(=O)[C@H](C(C)C)NC(=O)[C@H](Cc2ccccc2)NC(=O)[C@H](CO)NC1=O` (cyclo(FVPWPIS)), the EC50 came to 5.7 µM.
